According to article PMC12344719 (Journal of Chemical Information and Modeling, 2025):
Where two headings read alike, the source gives them in different places.

Assays:
SARS-CoV-2 Mpro = conditions: cited from earlier work
Vero cells [1] = conditions: African green monkey (Cercopithecus aethiops)
in vitro = conditions: African green monkey (Cercopithecus aethiops)
SARS-CoV-2 [2] = experiment: microbe, parasite or virus in culture; assay type: cell-based
SARS-CoV-2 [3] = assay type: cell-based
[4] = set-up: method as in Liu et al.; conditions: ref Liu et al.; cited from earlier work
Vero cells [5] = test system: Vero cells; set-up: method as in Yang et al.; conditions: 72 h condition without hypoxia, ref Yang et al.; cited from earlier work
[6] = toxicological studies in animals; cited from earlier work

With `O=C[C@H](C[C@@H]1CCNC1=O)NC(=O)[C@H](Cc1cccc(F)c1)NC(=O)c1cc2ccccc2[nH]1` [11b] as the molecule, how does the IC50 (SARS-CoV-2 Mpro) read?
Its IC50 is 0.04 µM.

Which results are given for `COc1ccccc1OCCCOc1ccc([N+](=O)[O-])cc1Cl` [MolPort-002-201-288]?
CC20 (Vero cells [1]): 3.031 µM; CC50 (in vitro): 20.6 µM

Which CC20 (Vero cells [1]; 72 h) does the source give for `CCOc1ccc2nc(C(=O)CCC(=O)OC(CCl)CCl)sc2c1` [MolPort-004-953-083] here?
Its CC20 is 29.30 µM.

And the CC50 at 72 h (in vitro)?
The CC50 at 72 h was 45.5 µM.

What does the source list for `Cc1cccc(C)c1NC(=O)CCCSCc1cccc(S(=O)(=O)N(C)C)c1` [MolPort-005-766-143]?
CC20 (Vero cells [1]; 72 h): 3.532 µM; CC50 at 72 h (in vitro): 15.7 µM

For `C=CCNC(=O)c1csc(-c2ccc(OCCC)cc2F)n1` [MolPort-006-606-981], which CC20 (Vero cells [1]) is on record?
The CC20 was 3.964 µM.

What about the CC50 (in vitro) of the same molecule?
The CC50 was 19.4 µM.

With `CN(CCCCCc1cc(-c2cccc(F)c2)n[nH]1)C(=O)C(C)(C)C` [MolPort-009-093-282] as the molecule, how does the CC20 (Vero cells [1]) read?
Its CC20 is 9.418 µM.

And the CC50 (in vitro)?
Its CC50 is 47.1 µM.

What does the source list for `CCS(=O)(=O)N(C)c1ccc2sc(C(=O)NCCC3=CCCCC3)cc2c1` [MolPort-010-778-422]?
SI (selectivity index) (SARS-CoV-2 [2]): 569.9; IC50 (SARS-CoV-2 [2]; Severe acute respiratory syndrome coronavirus 2, Vero, 2 h): 0.0089 µM; CC20 (Vero cells [1]; 72 h): 2.258 µM; log reduction (viral titer) (SARS-CoV-2 [3]): 5.6 log; CC50 at 72 h (in vitro): 5.07 µM

What does the source list for `COc1cccc(SCC(=O)N(Cc2ccccn2)C2CCCCC2)c1` [MolPort-045-920-671]?
CC20 (Vero cells [1]; 72 h): 2.772 µM; CC50 at 72 h (in vitro): 16.1 µM

With `CC(=O)c1[nH]c(C)c(C(=O)N(C)CCCOc2cccc(Cl)c2)c1C` [MolPort-046-186-743] as the molecule, how does the CC20 (Vero cells [1]; 72 h) read?
Its CC20 is 7.583 µM.

And the CC50 at 72 h (in vitro)?
The CC50 at 72 h was 27.6 µM.

What does the source list for `CCN(CC)CCCC(C)Nc1ccnc2cc(Cl)ccc12` (stereo not shown) [chloroquine]?
CC50 [4]: 273 µM; CC50 (Vero cells [5]): 92.4 µM

What does the source list for `CCN(CCO)CCCC(C)Nc1ccnc2cc(Cl)ccc12` (stereo not shown) [hydroxychloroquine]?
CC50 [4]: 250 µM; less toxic than chloroquine [6]: approximately 40%; CC50 (Vero cells [5]): 56.2 µM
